{"source": "ChEMBL document CHEMBL4602704", "about": "“Discovery and Optimization of Glucose Uptake Inhibitors” (J Med Chem, 2020)", "key": {"[1]": {"assay": "Apparent permeability in human Caco2 cells", "assay_type": "ADME, cell-based", "conditions": "Caco-2"}, "physchem [2]": {"assay": "physchem", "conditions": "phosphate buffered saline, pH 2"}, "physchem [3]": {"assay": "physchem", "conditions": "phosphate buffered saline, pH 4.5"}, "physchem [4]": {"assay": "physchem", "conditions": "phosphate buffered saline, pH 6.8"}, "in vivo [5]": {"assay": "in vivo", "conditions": "CD-1, mouse, brain, po, 100 mg/kg"}, "in vitro [6]": {"assay": "in vitro", "conditions": "human, Caco-2"}, "in vitro [7]": {"assay": "in vitro", "conditions": "human, Caco-2", "remark": "listed apart in the source"}, "in vivo [8]": {"assay": "in vivo", "conditions": "mouse, po, 30 mg/kg"}, "in vivo [9]": {"assay": "in vivo", "conditions": "mouse, po, 30 mg/kg", "remark": "listed apart in the source"}, "in vivo [10]": {"assay": "in vivo", "conditions": "mouse, iv, 10 mg/kg"}, "in vivo [11]": {"assay": "in vivo", "conditions": "mouse, iv, 10 mg/kg", "remark": "listed apart in the source"}, "in vivo [12]": {"assay": "in vivo", "conditions": "mouse"}, "in vivo [13]": {"assay": "in vivo", "conditions": "mouse, po, 30 mg/kg", "remark": "listed apart in the source"}, "in vivo [14]": {"assay": "in vivo", "conditions": "mouse, brain and plasma, po, 30 mg/kg"}, "in vivo [15]": {"assay": "in vivo", "conditions": "rat, po, 30 mg/kg"}, "in vivo [16]": {"assay": "in vivo", "conditions": "rat, po, 30 mg/kg", "remark": "listed apart in the source"}, "in vivo [17]": {"assay": "in vivo", "conditions": "rat, iv, 10 mg/kg"}, "in vivo [18]": {"assay": "in vivo", "conditions": "rat, iv, 10 mg/kg", "remark": "listed apart in the source"}, "in vivo [19]": {"assay": "in vivo", "conditions": "rat"}, "in vivo [20]": {"assay": "in vivo", "conditions": "rat, po, 30 mg/kg", "remark": "listed apart in the source"}, "in vivo [21]": {"assay": "in vivo", "conditions": "dog, po, 10 mg/kg"}, "in vivo [22]": {"assay": "in vivo", "conditions": "dog, po, 10 mg/kg", "remark": "listed apart in the source"}, "in vitro [23]": {"assay": "in vitro", "conditions": "mouse, liver microsomes"}, "in vitro [24]": {"assay": "in vitro", "conditions": "mouse, plasma"}, "in vitro [25]": {"assay": "in vitro", "conditions": "rat, liver microsomes"}, "in vitro [26]": {"assay": "in vitro", "conditions": "dog, liver microsomes"}, "in vitro [27]": {"assay": "in vitro", "conditions": "human, liver microsomes"}}, "data": [{"smiles": "CCOc1ccc2nc(-c3cccc(OCC(=O)NC(C)C)c3)nc(Nc3ccc(-c4cn[nH]c4)cc3)c2c1", "values": [{"measurement": "Papp", "setting": "[1]", "value": 2, "unit": "×10⁻⁶ cm/s"}, {"measurement": "solubility", "setting": "physchem [2]", "value": 3.36, "unit": "µM"}, {"measurement": "solubility", "setting": "physchem [3]", "value": 0.01, "unit": "µM"}, {"measurement": "solubility", "setting": "physchem [4]", "value": 0.03, "unit": "µM"}]}, {"smiles": "CC(C)(C)NC(=O)COc1cccc(-c2nc3c(c(Nc4ccc(-c5cn[nH]c5)cc4)n2)CN(C2CCC2)CC3)c1", "values": [{"measurement": "Kp at 1 h", "setting": "in vivo [5]", "value": 0.1}, {"measurement": "Papp A→B at 5 µM", "setting": "in vitro [6]", "value": 4.58, "unit": "×10⁻⁶ cm/s"}, {"measurement": "Papp B→A at 5 µM", "setting": "in vitro [7]", "value": 6.09, "unit": "×10⁻⁶ cm/s"}]}, {"smiles": "CC1(NC(=O)COc2cccc(-c3nc4c(c(Nc5ccc(-c6cn[nH]c6)cc5)n3)CN(C3CCC3)CC4)c2)CC1", "values": [{"measurement": "Cmax", "setting": "in vivo [8]", "value": 2520, "unit": "ng/mL"}, {"measurement": "AUC", "setting": "in vivo [9]", "value": 5890, "unit": "ng·h/mL"}, {"measurement": "clearance", "setting": "in vivo [10]", "value": 40, "unit": "mL/min/kg"}, {"measurement": "Vd", "setting": "in vivo [11]", "value": 1.7, "unit": "L/kg"}, {"measurement": "half-life", "setting": "in vivo [12]", "value": 0.785, "unit": "h"}, {"measurement": "bioavailability", "setting": "in vivo [13]", "value": 45.4, "unit": "%"}, {"measurement": "Kp at 2 h", "setting": "in vivo [14]", "value": 0.05}, {"measurement": "Cmax", "setting": "in vivo [15]", "value": 1680, "unit": "ng/mL"}, {"measurement": "AUC", "setting": "in vivo [16]", "value": 6810, "unit": "ng·h/mL"}, {"measurement": "clearance", "setting": "in vivo [17]", "value": 37, "unit": "mL/min/kg"}, {"measurement": "Vd", "setting": "in vivo [18]", "value": 4.51, "unit": "L/kg"}, {"measurement": "half-life", "setting": "in vivo [19]", "value": 2.59, "unit": "h"}, {"measurement": "bioavailability", "setting": "in vivo [20]", "value": 49.4, "unit": "%"}, {"measurement": "Kp at 1 h", "setting": "in vivo [5]", "value": 0.05}, {"measurement": "bioavailability", "setting": "in vivo [21]", "value": 19, "unit": "%"}, {"measurement": "bioavailability", "setting": "in vivo [22]", "value": 29, "unit": "%"}, {"measurement": "solubility", "setting": "physchem [2]", "value": 291, "unit": "µM"}, {"measurement": "solubility", "setting": "physchem [3]", "value": 256, "unit": "µM"}, {"measurement": "solubility", "setting": "physchem [4]", "value": 1.4, "unit": "µM"}, {"measurement": "half-life at 2 µM", "setting": "in vitro [23]", "value": 1.17, "unit": "h"}, {"measurement": "remaining at 18 h", "setting": "in vitro [24]", "value": "> 95", "unit": "%"}, {"measurement": "Papp A→B at 5 µM", "setting": "in vitro [6]", "value": 11.2, "unit": "×10⁻⁶ cm/s"}, {"measurement": "Papp B→A at 5 µM", "setting": "in vitro [7]", "value": 4.33, "unit": "×10⁻⁶ cm/s"}, {"measurement": "half-life at 2 µM", "setting": "in vitro [25]", "value": 1.05, "unit": "h"}, {"measurement": "half-life", "setting": "in vitro [26]", "value": 0.967, "unit": "h"}, {"measurement": "half-life", "setting": "in vitro [27]", "value": 1.93, "unit": "h"}]}]}
